Reference: article PMC9942120 (iScience, 2023)

How the values were obtained:
Assay in all cases: direct LC-MS/MS profiling of modified tryptic peptides
Format in all cases: cell-based
HSPD1 = HSPD1 (Homo sapiens, UniProt P10809); conditions: covalent at Cys237; H358 cells, […] AMG510, […] h (methods print […] h)
PCBP1 = PCBP1 (Homo sapiens, UniProt Q15365); conditions: covalent at Cys194; H358 cells, […] AMG510, […] h (methods print […] h)
KRT4 = KRT4 (Homo sapiens, UniProt P19013); conditions: covalent at Cys42; H358 cells, […] AMG510, […] h (methods print […] h)
Chain of KRT4 (P19013 whole entry): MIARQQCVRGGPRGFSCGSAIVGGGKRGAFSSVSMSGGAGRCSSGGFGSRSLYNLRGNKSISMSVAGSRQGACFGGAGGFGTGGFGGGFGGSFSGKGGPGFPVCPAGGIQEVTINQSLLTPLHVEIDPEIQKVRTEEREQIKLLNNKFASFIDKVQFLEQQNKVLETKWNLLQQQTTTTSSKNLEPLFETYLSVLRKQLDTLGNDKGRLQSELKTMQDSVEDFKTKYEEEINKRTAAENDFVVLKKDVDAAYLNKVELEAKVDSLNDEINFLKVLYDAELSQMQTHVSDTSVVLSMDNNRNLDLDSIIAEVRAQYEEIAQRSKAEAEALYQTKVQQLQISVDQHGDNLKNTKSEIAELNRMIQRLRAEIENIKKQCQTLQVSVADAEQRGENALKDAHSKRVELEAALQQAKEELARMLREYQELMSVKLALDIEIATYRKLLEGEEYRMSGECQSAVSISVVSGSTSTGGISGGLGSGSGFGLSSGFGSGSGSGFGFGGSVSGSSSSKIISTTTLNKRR

S100A16 = molecular target: T1, S100A16 (Homo sapiens, UniProt Q96FQ6); conditions: covalent at Cys4; H358 cells, […] AMG510, […] h (methods print […] h)
T1 sequence (Q96FQ6 1-103): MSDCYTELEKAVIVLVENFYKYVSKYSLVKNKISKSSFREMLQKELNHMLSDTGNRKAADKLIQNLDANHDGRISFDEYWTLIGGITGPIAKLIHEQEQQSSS

HMOX2 = molecular target: T2, HMOX2 (Homo sapiens, UniProt P30519); conditions: covalent at Cys282; H358 cells, […] AMG510, […] h (methods print […] h)
T2 sequence (P30519 2-316): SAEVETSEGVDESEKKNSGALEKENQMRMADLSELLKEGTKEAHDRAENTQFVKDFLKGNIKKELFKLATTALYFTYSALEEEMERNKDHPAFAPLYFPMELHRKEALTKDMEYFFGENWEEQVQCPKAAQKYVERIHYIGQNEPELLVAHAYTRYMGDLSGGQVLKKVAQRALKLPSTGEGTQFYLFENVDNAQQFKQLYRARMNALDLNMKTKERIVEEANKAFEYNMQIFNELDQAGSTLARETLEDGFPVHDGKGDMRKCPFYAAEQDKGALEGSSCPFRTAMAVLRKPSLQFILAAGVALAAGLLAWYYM

Chain of HSPD1 (P10809 27-573): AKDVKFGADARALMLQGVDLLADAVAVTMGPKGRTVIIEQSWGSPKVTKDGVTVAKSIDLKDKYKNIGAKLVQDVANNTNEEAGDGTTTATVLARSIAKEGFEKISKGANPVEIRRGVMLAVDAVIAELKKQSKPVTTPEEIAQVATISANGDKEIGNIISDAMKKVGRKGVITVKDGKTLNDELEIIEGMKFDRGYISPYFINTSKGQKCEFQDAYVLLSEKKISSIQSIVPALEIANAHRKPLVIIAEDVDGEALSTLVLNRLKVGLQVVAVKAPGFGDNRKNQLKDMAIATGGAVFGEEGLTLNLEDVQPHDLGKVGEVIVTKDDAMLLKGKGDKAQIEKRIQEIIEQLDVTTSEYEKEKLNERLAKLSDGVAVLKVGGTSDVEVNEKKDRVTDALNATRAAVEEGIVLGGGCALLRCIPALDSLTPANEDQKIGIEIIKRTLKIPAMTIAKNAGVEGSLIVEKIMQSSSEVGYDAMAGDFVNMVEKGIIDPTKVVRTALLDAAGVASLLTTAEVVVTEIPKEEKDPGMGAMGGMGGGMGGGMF
Chain of PCBP1 (Q15365 whole entry): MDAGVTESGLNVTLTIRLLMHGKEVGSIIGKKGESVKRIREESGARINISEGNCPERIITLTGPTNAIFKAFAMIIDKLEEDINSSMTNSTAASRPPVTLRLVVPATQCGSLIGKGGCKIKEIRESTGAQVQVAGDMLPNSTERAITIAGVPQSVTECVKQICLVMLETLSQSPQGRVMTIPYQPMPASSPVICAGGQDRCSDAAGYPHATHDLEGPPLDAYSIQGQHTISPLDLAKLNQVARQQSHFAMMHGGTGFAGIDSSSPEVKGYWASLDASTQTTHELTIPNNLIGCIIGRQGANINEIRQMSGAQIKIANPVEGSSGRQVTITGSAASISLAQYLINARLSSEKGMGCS

C=CC(=O)N1CCN(c2nc(=O)n(-c3c(C)ccnc3C(C)C)c3nc(-c4c(O)cccc4F)c(F)cc23)[C@@H](C)C1 [AMG510]
direct LC-MS/MS profiling of modified tryptic peptides (HSPD1): protein folding accessory protein (HSPD1 C237)
direct LC-MS/MS profiling of modified tryptic peptides (PCBP1): tumor suppressor (PCBP1 C194)
direct LC-MS/MS profiling of modified tryptic peptides (KRT4): differentiating epithelia cell markers (KRT4 C42)
direct LC-MS/MS profiling of modified tryptic peptides (S100A16): transporters (RAE1 C106, S100A16C4, VDAC2 C91 and C225)
direct LC-MS/MS profiling of modified tryptic peptides (HMOX2): off-targets that were identified in previous studies (RTN4 C1101 and HMOX2 C282)
